Measured values: PubChem BioAssay AID651853 (NMMLSC, 2012)

Each compound was assayed on AM2.2 cells FAP-GPR32, fluorogen binding, flow cytometry MCF (assay: fluorogen binding to FAP-tagged GPR32, dose response, counter-screen for beta2AR agonist internalization project, human GPR32, AM2.2 cells, powder set 3 (AID 651853)).

Row | SMILES | EC50
1 | Cc1ccc(NC(=O)C(c2ccc(Cl)cc2)N2CCOCC2)cc1 (stereo not given) | 0.92 µM
2 | Clc1ccc(OCc2nnc(SCc3nc4ccccc4[nH]3)n2Cc2ccco2)cc1 | 0.01 µM
3 | CC(C)Cc1nc2sc3c(NCc4ccco4)ncnc3c2c2c1COC(C)(C)C2 | 0.02 µM
4 | CC(=O)Nc1ccc(S(=O)(=O)N2CCC(Oc3ccc(-n4cnnn4)cc3)CC2)cc1 | 0.04 µM
5 | C=CCn1c(CCNC(=O)c2cccs2)nnc1SCC(=O)c1ccc(Br)cc1 | 0.01 µM
6 | CC(Sc1nc(-c2ccccc2)cc(C(F)(F)F)n1)C(=O)N1CCCCC1 (stereo not given) | 0.01 µM
7 | CC1(C)Cc2c(c(N3CCCC3)nc3sc4c(N5CCN(CCO)CC5)ncnc4c23)CO1 | 2.56 µM
8 | Cc1ccc(Cn2ccc(NC(=O)c3cc4nc(-c5ccco5)cc(C(F)(F)F)n4n3)n2)cc1 | 0.01 µM
9 | Cn1c(N2CCN(c3ccccn3)CC2)nc2c1c(=O)n(Cc1ccc(Cl)cc1)c(=O)n2C | 0.01 µM
10 | Clc1cccc(-c2nnc(SCc3nc4ccccc4[nH]3)n2Cc2ccco2)c1 | 7.18 µM
11 | CC(Oc1ccc(Cl)cc1Cl)c1nc(-c2ccc(NC(=O)c3ccccn3)cc2)no1 (stereo not given) | 0.12 µM
12 | Cc1ccccc1N1CCN(c2ncnc3c2cnn3Cc2ccc(Cl)cc2)CC1 | 2.17 µM
13 | CN(Cc1ccccc1)S(=O)(=O)c1ccc(NS(=O)(=O)Cc2ccccc2)cc1 | 0.05 µM
14 | CC(Sc1nc(-c2ccccc2)cc(C(F)(F)F)n1)C(=O)N1CCOCC1 (stereo not given) | 0.02 µM
15 | Cc1ncc(CN2CCCC(C(=O)Nc3ccc(-c4cccc(F)c4)cc3)C2)s1 (stereo not given) | 0.87 µM
16 | COc1ccc(OC)c(CCNC(=O)C2CCN(c3nnc(-n4cccc4)s3)CC2)c1 | 1.42 µM
17 | O=C(c1cc2c(=O)n3ccccc3nc2s1)N1CCN(Cc2ccc3c(c2)OCO3)CC1 | 0.11 µM
18 | Cc1ccc(OCc2cc(C(=O)N(C)Cc3cnn(-c4ccccc4C)c3)no2)cn1 | 0.06 µM
19 | CSc1nc(SCCO)c2sc3nc(-c4ccco4)c4c(c3c2n1)CC(C)(C)OC4 | 1.81 µM
20 | CC(Oc1ccc(Cl)cc1Cl)c1nc(-c2ccc(NC(=O)c3ccco3)cc2)no1 (stereo not given) | 0.23 µM
